ChEMBL document CHEMBL4342421, “Current scenario of tetrazole hybrids for antibacterial activity” (Eur J Med Chem, 2019)
In brackets after ≈: the same amount, converted by molar mass.

Tests used:
Salmonella typhimurium = assay: Antimicrobial activity against Salmonella typhimurium; assay type: functional, Salmonella enterica subsp. enterica serovar Typhimurium; conditions: Salmonella enterica
Escherichia coli [1] = assay: Antimicrobial activity against Escherichia coli; assay type: functional
PANC-1 = assay: Growth inhibition of human PANC1 cells; assay type: functional
Bacillus subtilis [2] = assay: Antimicrobial activity against Bacillus subtilis; assay type: functional
SiHa = assay: Growth inhibition of human SiHa cells; assay type: functional
MDA-MB-231 = assay: Growth inhibition of human MDA-MB-231 cells; assay type: functional
Micrococcus luteus = assay: Antibacterial activity against Micrococcus luteus; assay type: functional
Priestia megaterium = assay: Antimicrobial activity against Bacillus megaterium; assay type: functional
Bacillus subtilis [3] = assay: Antimicrobial activity against Bacillus subtilis NCIM 2250 after 48 hrs by NCCLS protocol based method; assay type: functional; conditions: NCIM 2250, 48 h
Escherichia coli [4] = assay: Antimicrobial activity against Escherichia coli ATCC 25922 after 48 hrs by NCCLS protocol based method; assay type: functional; conditions: ATCC 25922, 48 h
Candida albicans [5] = assay: Antifungal activity against Candida albicans MTCC 277 after 48 hrs by NCCLS protocol based method; assay type: functional; conditions: MTCC 277, 48 h
Aspergillus niger [6] = assay: Antifungal activity against Aspergillus niger NCIM 545 after 48 hrs by NCCLS protocol based method; assay type: functional; conditions: NCIM 545, 48 h
Staphylococcus aureus [7] = assay: Antimicrobial activity against Staphylococcus aureus ATCC 25923 assessed as zone of inhibition at 100 ug/ml after 24 hrs by disc diffusion method; assay type: functional; conditions: ATCC 25923, 24 h, read-out: IZ
Klebsiella pneumoniae = assay: Antimicrobial activity against Klebsiella pneumoniae ATCC 700603 assessed as zone of inhibition at 100 ug/ml after 24 hrs by disc diffusion method; assay type: functional; conditions: ATCC 700603, 24 h, read-out: IZ
Streptococcus agalactiae = assay: Antimicrobial activity against Streptococcus agalactiae 55118 assessed as zone of inhibition at 100 ug/ml after 24 hrs by disc diffusion method; assay type: functional; conditions: Streptococcus agalactiae, 55118, 24 h; read-out: IZ
Staphylococcus aureus [8] = assay: Antimicrobial activity against Staphylococcus aureus assessed as zone of inhibition at 50 ug/ml; assay type: functional; conditions: read-out: IZ
Escherichia coli [9] = assay: Antimicrobial activity against Escherichia coli assessed as zone of inhibition at 50 ug/ml; assay type: functional; conditions: read-out: IZ
Candida albicans [10] = assay: Antifungal activity against Candida albicans assessed as zone of inhibition at 50 ug/ml; assay type: functional; conditions: read-out: IZ
Aspergillus niger [11] = assay: Antifungal activity against Aspergillus niger assessed as zone of inhibition at 50 ug/ml; assay type: functional; conditions: read-out: IZ
Candida albicans [12] = assay: Antifungal activity against Candida albicans; assay type: functional
Candida tropicalis = assay: Antifungal activity against Candida tropicalis; assay type: functional
Staphylococcus aureus [13] = assay: Antimicrobial activity against Staphylococcus aureus; assay type: functional
Nakaseomyces glabratus = assay: Antifungal activity against Candida glabrata; assay type: functional
Pseudomonas aeruginosa = assay: Antimicrobial activity against Pseudomonas aeruginosa; assay type: functional

Row | SMILES | MIC (Salmonella typhimurium) [µg/mL] | MIC (Escherichia coli [1]) [µg/mL] | GI50 (PANC-1) [nM] | MIC (Bacillus subtilis [2]) [µg/mL] | GI50 (SiHa) [nM] | GI50 (MDA-MB-231) [nM] | MIC (Micrococcus luteus) [µg/mL] | MIC (Priestia megaterium) [µg/mL] | MIC (Bacillus subtilis [3]) [µg/mL] | MIC (Escherichia coli [4]) [µg/mL] | MIC (Candida albicans [5]) [µg/mL] | MIC (Aspergillus niger [6]) [µg/mL] | also measured
1 | O=C(O)c1cn(C2CC2)c2cc(N3CCN(C(=O)CCSc4nnnn4-c4ccc(C(F)(F)F)cc4)CC3)c(F)cc2c1=O | 15.6 (≈ 24.7 µM) | 15.6 (≈ 24.7 µM) | ≤ 1000 | 15.6 (≈ 24.7 µM) | ≤ 1000 | ≤ 1000 | 15.6 (≈ 24.7 µM) | 15.6 (≈ 24.7 µM) | – | – | – | – | –
2 | O=C(O)c1cn(C2CC2)c2cc(N3CCN(C(=O)CCSc4nnnn4-c4ccccc4)CC3)c(F)cc2c1=O | 15.6 (≈ 27.7 µM) | 15.6 (≈ 27.7 µM) | ≤ 1000 | 15.6 (≈ 27.7 µM) | ≤ 1000 | ≤ 1000 | 15.6 (≈ 27.7 µM) | 15.6 (≈ 27.7 µM) | – | – | – | – | –
3 | CCOC(=O)C(C#N)C(c1cc2cc(C)ccc2n2nnnc12)P(=O)(OCC)OCC (stereo not given) | – | – | – | – | – | – | – | – | 10 to 20 (≈ 22.5 to 44.9 µM) | 10 to 20 (≈ 22.5 to 44.9 µM) | 10 to 20 (≈ 22.5 to 44.9 µM) | 10 to 20 (≈ 22.5 to 44.9 µM) | –
4 | CCOC(=O)C(C#N)C(c1cc2ccc(CC)cc2n2nnnc12)P(=O)(OCC)OCC (stereo not given) | – | – | – | – | – | – | – | – | 10 to 20 (≈ 21.8 to 43.5 µM) | 10 to 20 (≈ 21.8 to 43.5 µM) | 10 to 20 (≈ 21.8 to 43.5 µM) | 10 to 20 (≈ 21.8 to 43.5 µM) | –
5 | O=C(O)c1cn(C2CC2)c2cc(N3CCN(C(=O)CCSc4nnnn4-c4ccc(Br)cc4)CC3)c(F)cc2c1=O | 15.6 (≈ 24.3 µM) | 15.6 (≈ 24.3 µM) | ≤ 1000 | 15.6 (≈ 24.3 µM) | ≤ 1000 | ≤ 1000 | 15.6 (≈ 24.3 µM) | 15.6 (≈ 24.3 µM) | – | – | – | – | –
6 | CCOC(=O)C(C#N)C(c1cc2cc(OC)ccc2n2nnnc12)P(=O)(OCC)OCC (stereo not given) | – | – | – | – | – | – | – | – | 10 to 20 (≈ 21.7 to 43.3 µM) | 10 to 20 (≈ 21.7 to 43.3 µM) | 10 to 20 (≈ 21.7 to 43.3 µM) | 10 to 20 (≈ 21.7 to 43.3 µM) | –
7 | COc1nc(N)nc(OC)c1Sc1nnnn1Cc1ccccc1 | – | – | – | – | – | – | – | – | – | – | – | – | zone of inhibition at 100 µg/mL (Staphylococcus aureus [7]): 10 to 24 mm; zone of inhibition at 100 µg/mL (Klebsiella pneumoniae): 10 to 24 mm; zone of inhibition at 100 µg/mL (Streptococcus agalactiae): 10 to 24 mm
8 | CN(C)c1ccc(/C=C/C(=O)n2nnnc2-c2ccccc2)cc1 | – | – | – | – | – | – | – | – | – | – | – | – | zone of inhibition at 50 µg/mL (Staphylococcus aureus [8]): 8 to 15 mm; zone of inhibition at 50 µg/mL (Escherichia coli [9]): 8 to 15 mm; zone of inhibition at 50 µg/mL (Candida albicans [10]): 8 to 15 mm; zone of inhibition at 50 µg/mL (Aspergillus niger [11]): 8 to 15 mm
9 | Cc1cc2c(=O)c(OCc3nnn[nH]3)c(-c3ccc(F)cc3)oc2cc1Cl | – | 50 to 400 (≈ 129 to 1030 µM) | – | 50 to 400 (≈ 129 to 1030 µM) | – | – | – | – | – | – | – | – | MIC (Candida albicans [12]): 12.5 to 25 µg/mL (≈ 32.3 to 64.6 µM); MIC (Candida tropicalis): 12.5 to 25 µg/mL (≈ 32.3 to 64.6 µM); MIC (Staphylococcus aureus [13]): 50 to 400 µg/mL (≈ 129 to 1030 µM); MIC (Nakaseomyces glabratus): 12.5 to 25 µg/mL (≈ 32.3 to 64.6 µM); MIC (Pseudomonas aeruginosa): 50 to 400 µg/mL (≈ 129 to 1030 µM)
